This note sets out measurements from patent publication US20180110824A1, “Macrocyclic Modulators of the Ghrelin Receptor” (Ocera Therapeutics, Inc., priority 2016, published 2018).

In one assay the target is T1, human growth hormone secretagogue receptor (hGHS-R1a) (Homo sapiens, UniProt Q92847).
T1 construct: purchased PerkinElmer BioSignal #RBHGHSM; host or cells: HEK-293, stably transfected
T1 sequence (Q92847 whole entry): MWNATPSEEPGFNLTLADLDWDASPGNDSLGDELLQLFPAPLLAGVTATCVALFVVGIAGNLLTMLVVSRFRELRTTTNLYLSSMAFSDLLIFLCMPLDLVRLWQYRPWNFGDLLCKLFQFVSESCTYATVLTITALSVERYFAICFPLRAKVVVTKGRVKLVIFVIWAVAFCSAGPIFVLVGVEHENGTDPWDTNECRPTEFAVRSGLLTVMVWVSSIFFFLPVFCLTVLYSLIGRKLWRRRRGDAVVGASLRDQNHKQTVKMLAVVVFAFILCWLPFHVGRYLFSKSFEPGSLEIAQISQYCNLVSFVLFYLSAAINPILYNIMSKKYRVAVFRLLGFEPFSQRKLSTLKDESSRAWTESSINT
The assay is described as follows: Competitive radioligand binding assay (ghrelin receptor), [125I]-ghrelin displacement on GHS-R/HEK 293 membranes.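 For Binding Activity at the Human Ghrelin Receptor (Ki): symbols B 10-100 nM C 0.1-1 µM D 1-10 µM F above 1 µM G above 10 µM.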 Particulars: Binding activity at the human ghrelin receptor, [125I]-ghrelin displacement; read-out: Ki. As for the experimental part:
The competitive binding assay at the human growth hormone secretagogue receptor (hGHS-R1a) was carried out analogously to assays described in the literature.
Multiscreen Harvest plates-GF/C (Millipore, #MAHFC1H60) • 4. […] Bottom seal (Millipore, #MATAH0P00) • 7. […] Binding Buffer: 25 mM Hepes (pH 7.4), 1 mM CaCl2, 5 mM MgCl2, 2.5 mM EDTA, 0.4% BSA
Competition experiments were performed in a 300 μl filtration assay format. • 1. 220 μL of membranes diluted in binding buffer • 2. 40 μL of compound diluted in binding buffer • 3.
Compounds were provided frozen on dry ice at a stock concentration of 10 mM diluted in 100% DMSO and stored at −80° C. until the day of testing. On the test day, compounds were allowed to thaw at rt O/N and then diluted in assay buffer according to the desired test concentrations. Under these conditions, the maximal final DMSO concentration in the assay was 0.1%.
Plates were sealed with TopSeal-A, vortexed gently and incubated at rt for 30 min. The reaction was arrested by filtering samples through Multiscreen Harvest plates (pre-soaked in 0.5% polyethyleneimine) using a Tomtec Harvester, washed 9 times with 500 μL of cold 50 mM Tris-HCl (pH 7.4, 4° C.), and then plates were air-dried in a fumehood 30 min. A bottom seal was applied to the plates prior to the addition of 25 μL of MicroScint-0 to each well. […] Results were expressed as counts per minute (cpm).
Data were analyzed by GraphPad Prism (GraphPad Software, San Diego, Calif.) using […] non-linear regression analysis.
where total and non-specific binding represent the cpm obtained in the absence or presence of 1 μM ghrelin, respectively.
• 1. Binding performed on membranes prepared from HEK293 expressing the transfected, cloned human ghrelin receptor (hGHS-R1a). • 2. […] Ghrelin (unlabeled, 1 μM) was used to determine non-specific binding. • 4.
For `CC[C@@H](C)[C@@H]1C(=O)N[C@H](Cc2ccccc2)C(=O)NCCCc2ccccc2OCCN[C@@H]([C@@H](C)CC)C(=O)N1C` [compound 149], the Ki lay in the range of 1 to 10 µM.

As for `C[C@@H]1C(=O)N[C@H](Cc2ccccc2)C(=O)NCCCc2ccccc2OCCNC2(CC2)C(=O)N1C` [compound 121], the Ki was > 10 µM.

Turning to `CCC[C@@H]1NCCOc2ccccc2CCCNC(=O)[C@@H](Cc2ccccc2)NC(=O)[C@@H](CCCCN)NC1=O` [compound 69], the Ki is > 10 µM.

With `CCC[C@@H]1NCCOc2ccccc2CCCNC(=O)[C@H](Cc2ccccc2)NC(=O)CN(C)C1=O` [compound 57], the Ki lay in the range of 0.1 to 1 µM.

For the compound `CC(C)C[C@@H]1NCc2ccccc2Sc2ccccc2CNC(=O)[C@H](Cc2ccccc2)NC(=O)C2(CCCC2)NC1=O` [compound 108], the Ki was in the range of 1 to 10 µM.

As to `O=C(O)CC[C@@H]1NCCOc2ccccc2CCCNC(=O)[C@H](Cc2ccccc2)NC(=O)C2(CCCC2)NC1=O` [compound 104], the Ki was > 10 µM.

Consider `CC(C)C[C@@H]1NCCOc2ccccc2/C=C/CNC(=O)[C@H](Cc2cccc3ccccc23)NC(=O)C2(CCCC2)NC1=O` [compound 22], for which the Ki lay in the range of 0.01 to 0.1 µM.

As for `CCC[C@@H]1NC(=O)C2(CCCC2)NC(=O)[C@H](CC(C)C)NCCOc2ccccc2/C=C/CNC1=O` [compound 48], the Ki is > 10 µM.

For the compound `CC(C)C[C@@H]1NCCOc2ccccc2CCCNC(=O)[C@H](Cc2ccccc2)NC(=O)C(C)(C)NC1=O` [compound 95], the Ki was 1 to 10 µM.

Take `NCCCC[C@@H]1NCCOc2ccccc2CCCNC(=O)[C@H](Cc2ccccc2)NC(=O)C2(CCCC2)NC1=O` [compound 103]: the Ki was > 10 µM.

Turning to `CC(C)C1NCCOc2ccccc2/C=C/CNC(=O)C(Cc2ccccc2)NC(=O)C2(CCSCC2)NC1=O` (stereo not shown) [compound 143], the Ki is 0.1 to 1 µM.

As to `CCCC1NCCOCCNC(=O)C(Cc2ccccc2)NC(=O)CN(C)C1=O` (stereo not shown) [compound 81], the Ki is > 10 µM.

Consider `O=C1NC/C=C/c2ccccc2OCCN[C@@H](C(c2ccccc2)c2ccccc2)C(=O)NC2(CCCC2)C(=O)N[C@H]1Cc1ccccc1` [compound 129], for which the Ki was > 10 µM.

`CC[C@H](C)[C@@H]1NCCOc2ccccc2CCCNC(=O)[C@@H](Cc2cscn2)NC(=O)[C@@H](C)N(C)C1=O` [compound 33]: the Ki was 0.1 to 1 µM.

As for `CC(C)C1NCCOc2ccccc2/C=C/CNC(=O)C(Cc2ccccc2)NC(=O)C2(Cc3ccccc3C2)NC1=O` (stereo not shown) [compound 142], the Ki fell in the range of 0.1 to 1 µM.

As to `CC(C)C[C@@H]1NCCOCCNC(=O)[C@H](Cc2ccccc2)NC(=O)C2(CCCC2)NC1=O` [compound 44], the Ki was > 10 µM.

For the compound `CC[C@H](C)[C@@H]1NCCOc2ccccc2CCCNC(=O)[C@@H](Cc2ccccc2)NC(=O)[C@@H](C(C)C)N(C)C1=O` [compound 144], the Ki was 0.1 to 1 µM.

Consider `CCC[C@@H]1NCCOc2ccccc2CCCNC(=O)[C@@H](Cc2ccccc2)NC(=O)C(C)(C)NC1=O` [compound 66], for which the Ki lay within 0.1 to 1 µM.

Take `O=C1NC2(CCCC2)C(=O)N[C@@H](Cc2ccccc2)C(=O)NC/C=C/c2ccccc2OCCN[C@H]1Cc1cccs1` [compound 135]: the Ki was in the range of 0.1 to 1 µM.

Turning to `CCC[C@@H]1NCCOc2ccccc2CCCNC(=O)CNC(=O)CN(C)C1=O` [compound 51], the Ki was > 10 µM.

Turning to `O=C1NC2(CCCC2)C(=O)N[C@@H](Cc2ccccc2)C(=O)NC/C=C/c2ccccc2OCCN[C@H]1Cc1ccc2ccccc2c1` [compound 131], the Ki is 0.1 to 1 µM.

`C[C@@H]1NCCOc2ccccc2CCCNC(=O)[C@H](Cc2ccccc2)NC(=O)C2(CCCC2)NC1=O` [compound 100]: the Ki lay in the range of 0.1 to 1 µM.

As for `CN1CC(=O)N[C@H](Cc2ccccc2)C(=O)NCCCc2ccccc2OCCN[C@@H](CO)C1=O` [compound 76], the Ki was > 10 µM.

The assay is the same for the next values; noted with them: Table 3B; binding activity at the human ghrelin receptor; read-out: Ki.
With `CSCC[C@@H]1NCCOc2ccccc2CCCNC(=O)[C@@H](Cc2ccc(F)cc2)NC(=O)[C@@H](C)N(C)C1=O` [compound 340], the Ki lay in the range of 0.01 to 0.1 µM.

Take `C[C@@H]1C(=O)N[C@H](Cc2ccc(Br)cc2)C(=O)NCCCc2ccccc2OCCN[C@@H](C2CC2)C(=O)N1C` [compound 319]: the Ki is 0.0001 to 0.01 µM.

As to `C[C@@H]1C(=O)N[C@H](Cc2ccc(F)cc2)C(=O)NCCCc2ccccc2OCCN[C@@H](CN)C(=O)N1C` [compound 337], the Ki is 0.1 to 1 µM.

For `C[C@@H]1C(=O)N[C@H](Cc2ccc(C#N)cc2)C(=O)NCCCc2ccccc2OCCN[C@@H](C2CC2)C(=O)N1C` [compound 321], the Ki fell in the range of 0.01 to 0.1 µM.

For `O=C1NC2(CCCC2)C(=O)N[C@@H](Cc2cccc(Cl)c2)C(=O)NC/C=C/c2ccccc2OCCN[C@H]1Cc1ccc(O)cc1` [compound 301], the Ki was in the range of 0.01 to 0.1 µM.

Turning to `C[C@@H]1C(=O)N[C@H](Cc2ccc(F)cc2)C(=O)NCCC(C)(C)c2ccccc2OCCN[C@@H](C2CC2)C(=O)N1C` [compound 378], the Ki was in the range of 0.1 to 1 µM.

Turning to `COC[C@@H]1NCCOc2ccccc2/C=C/CNC(=O)[C@H](Cc2cccc(Cl)c2)NC(=O)C2(CCCC2)NC1=O` [compound 344], the Ki was in the range of 0.1 to 1 µM.

As to `CC[C@H](C)[C@@H]1NCCOc2ccccc2/C=C/CNC(=O)[C@H](Cc2cccc(C#N)c2)NC(=O)C2(CCCC2)NC1=O` [compound 329], the Ki is 0.01 to 0.1 µM.

Consider `CC1CCNC(=O)[C@@H](Cc2ccc(F)cc2)NC(=O)[C@@H](C)N(C)C(=O)[C@H](C2CC2)NCCOc2ccccc21` (stereo partly shown) [compound 375], for which the Ki was in the range of 0.1 to 1 µM.

With `COC[C@@H]1NCCOc2ccccc2CCCNC(=O)[C@@H](Cc2ccc(F)cc2)NC(=O)[C@@H](C)N(C)C1=O` [compound 336], the Ki is 0.1 to 1 µM.

With `CO[C@H](C)[C@@H]1NCCOc2ccccc2CCCNC(=O)[C@@H](Cc2ccc(F)cc2)NC(=O)[C@@H](C)N(C)C1=O` [compound 335], the Ki is 0.01 to 0.1 µM.

Turning to `N#Cc1ccccc1C[C@@H]1NCCOc2ccccc2/C=C/CNC(=O)[C@H](Cc2cccc(Cl)c2)NC(=O)C2(CCCC2)NC1=O` [compound 342], the Ki fell in the range of 0.1 to 1 µM.

As to `CC[C@H](C)[C@@H]1NCCOCC=CCCNC(=O)[C@H](Cc2cccc(Cl)c2)NC(=O)C2(CCCC2)NC1=O` [compound 360], the Ki lay in the range of 0.1 to 1 µM.

As to `CCC(C)C1NCCOCCCCCNC(=O)C(Cc2cccc(Cl)c2)NC(=O)C2(CCCC2)NC1=O` (stereo not shown) [compound 370], the Ki lay in the range of 0.1 to 1 µM.

With `C[C@@H]1C(=O)N[C@H](Cc2ccc(F)cc2)C(=O)NCCCCCOCCN[C@@H](C2CC2)C(=O)N1C` [compound 398], the Ki fell in the range of 0.1 to 1 µM.

For `C[C@@H]1C(=O)N[C@H](Cc2ccc(F)cc2)C(=O)NCCCc2cc(C(F)(F)F)ccc2OCCN[C@@H](C2CC2)C(=O)N1C` [compound 356], the Ki is 0.1 to 1 µM.

For the compound `CC[C@H](C)[C@@H]1NCCOc2ccccc2/C=C/CNC(=O)[C@H](Cc2cccc(Br)c2)NC(=O)C2(CCCC2)NC1=O` [compound 326], the Ki was 0.01 to 0.1 µM.

Regarding `O=C1NC2(CCCC2)C(=O)N[C@@H](Cc2cccc(Cl)c2)C(=O)NC/C=C/c2ccccc2OCCN[C@H]1Cc1ccsc1` [compound 341], the Ki lay in the range of 0.01 to 0.1 µM.

`C[C@@H]1C(=O)N[C@H](Cc2ccc(F)c(F)c2)C(=O)NCCCc2ccccc2OCCN[C@@H](C2CC2)C(=O)N1C` [compound 316]: the Ki was 0.01 to 0.1 µM.

The assay is the same for the next values; noted with them: Table 3E; read-out: Ki.
Consider `CC(C)C[C@@H]1NCCOc2ccccc2CCCNC(=O)[C@H](Cc2ccccc2)NC(=O)[C@@H]2CCCN2C1=O` [compound 222], for which the Ki lay within 1 to 10 µM.

The assay is the same for the next values; noted with them: [125I]-ghrelin displacement, GHS-R/HEK 293 membranes; class symbols; read-out: Binding Activity at the Human Ghrelin Receptor (Ki).
Regarding `CCC(C)C1NCCOc2ccccc2CCCNC(=O)C(Cc2ccccc2)NC(=O)C(COC(C)(C)C)NC1=O` (stereo not shown) [compound 215], the Ki fell in the range of 1 to 10 µM.

Regarding `CC(C)C[C@@H]1NCCOc2ccccc2/C=C/CNC(=O)[C@H](C(c2ccccc2)c2ccccc2)NC(=O)C2(CCCC2)NC1=O` [compound 158], the Ki was > 1 µM.

Turning to `CC(C)C[C@@H]1NCCOc2ccccc2/C=C/CNC(=O)[C@H](Cc2cscn2)NC(=O)C2(CCCC2)NC1=O` [compound 163], the Ki is > 10 µM.

For the compound `CC[C@H](C)[C@@H]1NCCOCC=CCNC(=O)[C@@H](Cc2ccccc2)NC(=O)[C@@H](C)N(C)C1=O` [compound 185], the Ki is 0.1 to 1 µM.

Take `CC(=O)N1CCOc2ccccc2/C=C/CNC(=O)[C@H](Cc2ccccc2)NC(=O)C2(CCCC2)NC(=O)[C@@H]1CC(C)C` [compound 204]: the Ki is > 10 µM.

`CC[C@H](C)[C@@H]1NCCc2ccccc2C=CCNC(=O)[C@@H](Cc2ccccc2)NC(=O)[C@@H](C)N(C)C1=O` [compound 187]: the Ki was in the range of 0.1 to 1 µM.

As to `CC(C)C[C@@H]1NCCOc2ccccc2CCCNC(=O)[C@H](Cc2ccccc2)NC(=O)[C@@H]2CCCN2C1=O` [compound 222], the Ki lay within 1 to 10 µM.

With `CC(C)[C@@H]1NCCOc2ccccc2/C=C/CNC(=O)[C@H](Cc2ccccc2)NC(=O)C2(CCNCC2)NC1=O` [compound 211], the Ki is > 1 µM.

As for `O=C1NC2(CCCC2)C(=O)N[C@@H](Cc2ccccc2)C(=O)NC/C=C/c2ccccc2OCCN[C@H]1Cc1cnc[nH]1` [compound 219], the Ki was in the range of 0.1 to 1 µM.

Broadly, the Ki is the equilibrium dissociation constant of an inhibitor or competing ligand from its target.
